# Test results: patent publication US5310938A, “Substituted arylpyrrole compounds” (American Cyanamid Company, priority 1993, dated 1994)
# Values joined by “and” are separate entries in the source; they are usually repeats but may differ in a detail not shown here. Identical values can stand only once.
# Tests used:
# [1] = system: Psoroptes cuniculi; assay: Filter paper contact test against Psoroptes cuniculi (Rabbit Ear Mite); assay type: in vivo; details: Psoroptes ovis, 24 hour; for mortality at 4 µg/cm2, 4 µg/cm2: 4.0 μg/cm^2, read-out: 24 hour % Mortality; for mortality at 10 µg/cm2, 10 µg/cm2: 10.0 μg/cm^2
# Description: On the day prior to the test initiation the drugs to be evaluated are dissolved in acetone and diluted to the desired concentrations. The concentration is calculated so that 400 μl contains the amount of test compound to be placed on each filter paper. 400 μl of this solution is pipetted onto a top (3.7 cm dia.) and bottom (3.5 cm dia.) filter paper disks which are then placed on a ceramic plate to dry. There is a rough and smooth side to the filter paper. Drug should be applied to the rough side which is placed up while drying. When dry the two disks are placed in a Petri dish with the rough sides facing in, separated by one 3 mm glass bead. Dishes are held at room temperature overnight if done the day before the test.
# Scab (containing mites) is collected from the ears of infested rabbits the morning of the test. This material is placed in a large Petri dish under an illuminated magnifier. Mites crawl out of the scab and are easily collected on the point of a dissecting needle or one prong of a pair of fine forceps. The top filter paper in each dish is removed and 12 mites are placed on the bottom disk and the top paper replaced. Before replacing the top of the Petri dish the rim of the dish is smeared with Vaseline to trap any escaping mites.
# For evaluation tests there are generally 4 replicates of each dose which are counted at 24 hours. After mites are added to the dishes, the dishes in each replicate are placed in a tray which is then placed in a plastic bag with several wet towels and held at room temperature.
# After 24 hours dishes are examined under a dissecting scope. Each dish is opened carefully and the top filter paper removed and saved. A 1/2 cm circle is drawn on the bottom filter paper and the paper gently wet in the area of the circle. All mites from the dish are transferred into the wet circle area and counted. The top cover is replaced on each dish and the dishes set aside for at least 15 minutes. After standing the dishes are examined and the mites remaining on the circle counted. These mites are dead. Percent mortality of the mites is then calculated for each treatment.
# [2] = system: Dermacentor variabilis; assay: Filter paper contact test against larval stages of the Dogtick; assay type: in vivo; details: for mortality at 10 µg/cm2, 10 µg/cm2: 10.0 μg/cm^2, 48 hour
# Description: The test procedure used herein is the same procedure described in Example 2, for evaluating the arylpyrroles for control of Psoroptes cuniculi the Rabbit Ear Mite, with the following exceptions:
# (1) Unfed larval ticks are obtained from egg masses laid by gravid female ticks removed from dogs and each replicate receives ticks from the same egg mass;
# (2) Ticks survive longer than mites in the Petri dishes, thus readings are made 48 hours or longer after the test is initiated; and
# (3) When reading the test it may be necessary to blow on the ticks to stimulate their movement.
# [3] = system: Housefly Larvae; assay: Inhibition of pupation of newly emerged housefly larvae; assay type: in vivo; details: Musca domestica, 168 h, one week, 27° C., corrected by Abbott's formula
# Description: In this test system newly emerged housefly larvae are grown on an undefined medium of fermented whole milk and dried beef blood. Compounds are added to the milk and activity is determined by the failure of larvae to pupate.
# The test is run in 1 oz. plastic medicine cups. Paper toweling is cut in pieces approximately 3.5×10 cm. Three of these pieces are folded accordion style and placed in each paper cup. A piece of masking tape is placed on the outside of the cup to facilitate numbering. Cups should be prepared prior to the day the test is to begin.
# Newly hatched housefly larvae are obtained on the morning the test is to begin. The eggs are laid the night before and larvae usually begin to hatch by 9-10 AM the following morning.
# Twenty-four hours before the initiation of the test, one half gallon of whole milk is divided into 5 1-liter beakers and placed in an incubator at 39° C.
# The morning of the test, one 250 ml beaker is labeled for each treatment. The fermented milk is removed from the incubator, stirred and poured into each of the small beakers. The beakers are then returned to the incubator and 1-2 g of dried beef blood added to each beaker to distribute blood which will not dissolve. The beakers are again returned to the incubator.
# Doses of compounds are calculated so that 0.1 ml contains the amount of compound to be added to 100 ml of milk. Compounds should be dissolved in acetone. 100 μl of acetone is added to each control beaker.
# Each beaker is removed from incubator and placed on a magnetic stirrer. The compound is added and thoroughly mixed. Then 20 ml portions are removed and added to labelled test cups (4 reps/treatment). Cups are placed in stainless steel tray until all are prepared. […] The tray containing the cups are then placed in a plastic bag and maintained at room temperature.
# The media that the fly eggs are laid in is spread out in a green or black pan so that larvae can be observed. Working under an illuminated magnifier 20 larvae are transferred into each cup using a fine paint brush. Each cup is then sealed in a Zip-Loc sandwich bag with a few pinholes in it.
# Bags containing cups are placed on a flat tray and placed in a 27° C. incubator for one week. The majority of the larvae will have pupated at this point.
# Trays are then removed from the incubator and the number of pupae in each bag recorded. The paper toweling is removed and examined closely for any pupae that have remained in the cups. Most of the pupae will be loose in the bag. A note is also made of any dead or live developed larvae. If there are larvae that appear capable of pupating, the bag may be returned to the incubator for a day to see if they will pupate.
# The percent development of pupae is then calculated. The final results are expressed as a percent inhibition of pupation and are corrected for control mortality by using Abbott's formula.
# [4] = system: Caenorhabditis elegans; assay: Nematicidal activity against C. elegans (motility rating); assay type: in vivo, C. elegans (Bristol strain); design: key: 9: complete kill; 8: no motility; 7: markedly reduced motility in approximately 95% of worms; 6: reduced motility; 5: slightly reduced motility; 0: normal motility, same as controls; details: read at 4 and 24 hours post-immersion
# Description: Cultures of C. elegans (Bristol strain from J. Lewis) are maintained on E. coli lawns on NG Agar Plates at 20° C. New cultures are established weekly.
# Nematodes for testing are washed from 4-5 day old cultures using Fresh Ascaris Ringers Solution (FARS). The worms are further washed with FARS,-containing gentamycin, to reduce bacterial contamination and centrifuged to separate worms from wash solution. This procedure is repeated three times. The washed worms are then added to C. brigassae Maintenance Medium (CbMM), from GIBCOa to which is added gentamycin (600 units/ml) and mycostatin (0.5 mg/ml).
# Compounds are dissolved in acetone and made up to volume with equal parts of water. The final test concentration of each compound in the mixture is 150 ppm. The test material is micropipetted (25 ul) into a single well of a 96-well sterile tissue culture plate (COSTAR)^b and the solvent allowed to evaporate. These "treated" plates are used immediately or stored in a refrigerator without apparent adverse effects on the compounds.
# A freshly prepared volume ([…]) of C. elegans in CbMM is micropipetted into each treated well and several control wells per plate. Culture plates are incubated at 20° C.
# Observations for efficacy are made under a dissecting microscope at 4 and 24 hours post-immersion. Immediately prior to reading the plate, it is gently tapped to stimulate the movement of the worms. Activity is judged based on the drug effects on motility of the adults and larvae. […] Other factors indicating activity are easily noted such as death, rigor mortis, contraction, coiling, paralysis, abnormal twitching, reduced worm population in 48 hours and other deviation from normal behavior.
# Day 0 Inoculate E. Coli-NG Agar Dish With 30-40
# Day 4 Harvest New C. Elegans Population
# Add C. Elegans (25-100 µL) To "Medicated"
# Observe for Activity at 4 hours Post-
# Day 5 Observe For Activity
# [5] = system: Trichostrongylus colubriformis; assay: Control of helminths (T. colubriformis) in infected gerbils; assay type: in vivo, Trichostrongylus colubriformis (sheep origin) in gerbils; details: 500 PPM in diet, 4 days
# Description: Each test generally consists of 75 infected gerbils, randomly distributed 2 or 3 per cage (the number of animals per cage is consistent within a specific experiment). Generally, there are 8-9 untreated control gerbils (3-4 cages) per test. The remaining cages are assigned a treatment, usually 1 cage per compound or dose.
# Compounds administered in diet are fed for 4 days. Animals treated by gavage or injection are generally treated on only 1 day (usually day 7).
# In accordance with this test, gerbils are each orally infected by gavage, with about 400 Trichostrongylus colubriformis infective larvae of sheep origin. The infected animals are then permitted to feed and drink ad libitum for six days. On day 7 the infected gerbils are randomly placed in rodent cages 2 or 3 animals per cage. The animals in each cage are weighed and the feed for each cage weighed. If the treatment to be evaluated is medicated feed, said medicated feed is offered on day 7 and continued through day 11 of the trial. If the treatment to be evaluated is a single oral dose or a parenteral treatment, the animals are given the medication by gavage or injection on day 7 and receive unmedicated feed and water through day 11 of the trial. On day 11 the animals and their feed are weighed. Thereafter the animals are euthanized by CO2 inhalation and their small intestines removed, inverted on application sticks and incubated in tap water at 39° C. for 1-5 hours. The sticks and intestines are then discarded and the worms from each treatment counted to determine the % mortality of the worms as compared to untreated controls.
molecule,measurement,setting,value
CCOCn1c(-c2ccc(Br)cc2)c(C#N)c(Br)c1C(F)(F)F [4-Bromo-2-(P-bromophenyl)-1-(ethoxymethyl)-5-(trifluoromethyl)pyrrole-3-carbonitrile],"mortality at 4 µg/cm2, 4 µg/cm2",[1],31%
"CCOCn1c(C(F)(F)F)cc([N+](=O)[O-])c1-c1ccc(Cl)c(Cl)c1 [2-(3,4-Dichlorophenyl)-1-(ethoxymethyl)-3-nitro-5-(trifluoromethyl)pyrrole]","mortality at 4 µg/cm2, 4 µg/cm2",[1],92%
"CCOCn1c(Cl)c(Cl)c(C#N)c1-c1ccc(OC(F)(F)F)cc1 [4,5-Dichloro-1-(ethoxymethyl)-2-[P-(trifluoromethoxy)phenyl]pyrrole-3-carbonitrile]","mortality at 4 µg/cm2, 4 µg/cm2",[1],100%
"N#Cc1c(-c2ccc(Cl)c(Cl)c2)[nH]c(Cl)c1Cl [4,5-dichloro-2-(3,4-dichlorophenyl)pyrrole-3-carbonitrile]","mortality at 10 µg/cm2, 10 µg/cm2",[2],40%
same,"mortality at 10 µg/cm2, 10 µg/cm2",[1],33%
CCOCn1c(-c2ccc(Cl)cc2)c(C#N)c(Br)c1C(F)(F)F [4-bromo-2-(P-chlorophenyl)-1-(ethoxymethyl)-5-(trifluoromethyl)pyrrole-3-carbonitrile],"mortality at 1 µg/cm2, 1 µg/cm2","[2]; 1.0 μg/cm^2, 48 hour",77%
same,"mortality at 4 µg/cm2, 4 µg/cm2","[2]; 4.0 μg/cm^2, 48 hour",83%
same,"mortality at 5 µg/cm2, 5 µg/cm2","[2]; 5.0 μg/cm^2, 48 hour",100%
same,"mortality at 10 µg/cm2, 10 µg/cm2",[2],100%
same,inhibition at 1 ppm,[3]; 1.0 ppm,15%
same,inhibition at 2.5 ppm,[3]; 2.5 ppm,0%
same,inhibition at 5 ppm,[3]; 5.0 ppm,38%
same,inhibition at 10 ppm,[3],99%
same,Rating Against C. Elegans 150 ppm,[4],9
same,"mortality at 4 µg/cm2, 4 µg/cm2",[1],76%
"CCOCn1c(-c2ccc(Cl)cc2)c(C#N)c(Br)c1C(F)(F)F [4-Bromo-2-(P-chlorophenyl)-1-(ethoxymethyl)-5-(trifluoromethyl)-2-(α,α,α-trifluoro-P-tolyl)pyrrole-3-carbonitrile]",% Helminth removal,[5],29%
"O=[N+]([O-])c1c(-c2ccccc2)[nH]c(C(F)(F)F)c1C(F)(F)F [3-nitro-2-phenyl-4,5-bis(trifluoromethyl)pyrrole]",% Helminth removal,[5],42%
same,Rating Against C. Elegans 150 ppm,[4],9
4-Bromo-1-(ethoxymethyl)-5-(trifluoromethyl)pyrrole-3-carbonitrile,% Helminth removal,[5],13%
"CCOCn1c(-c2ccc(Cl)c(Cl)c2)c(C#N)c(Br)c1C(F)(F)F [4-bromo-2-(3,4-dichlorophenyl)-1-(ethoxymethyl)-5-(trifluoromethyl)-pyrrole-3-carbonitrile]",% Helminth removal,[5],15% and 28%
same,Rating Against C. Elegans 150 ppm,[4],9
"Cn1c(Cl)c(Cl)c(C#N)c1-c1ccc(OC(F)(F)F)cc1 [4,5-Dichloro-1-methyl-2-[P-(trifluoromethoxy)phenyl]-pyrrole-3-carbonitrile]","mortality at 10 µg/cm2, 10 µg/cm2",[2],55%
"N#Cc1cc[nH]c1-c1cc(F)c(Cl)cc1Cl [2-(2,4-Dichloro-5-fluorophenyl)pyrrole-3-carbonitrile]","mortality at 4 µg/cm2, 4 µg/cm2",[1],73%
"N#Cc1c(Br)[nH]c(-c2ccc(Cl)cc2)c1Br [2,4-dibromo-5-(p-chlorophenyl)pyrrole-3-carbonitrile]","mortality at 4 µg/cm2, 4 µg/cm2",[1],11%
"N#CCn1c(Cl)c(Cl)c(C#N)c1-c1ccc(C(F)(F)F)cc1 [2,3-Dichloro-4-cyano-5-(α,α,α-trifluoro-P-tolyl)-pyrrole-1-acetonitrile]",inhibition at 10 ppm,[3],100%
same,Rating Against C. Elegans 150 ppm,[4],9
same,"mortality at 4 µg/cm2, 4 µg/cm2",[1],77%
"O=[N+]([O-])c1c(-c2ccc(Cl)cc2)[nH]c(Cl)c1Cl [2,3-Dichloro-5-(P-chlorophenyl)-4-nitropyrrole]","mortality at 10 µg/cm2, 10 µg/cm2",[2],58%
same,Rating Against C. Elegans 150 ppm,[4],9
same,"mortality at 4 µg/cm2, 4 µg/cm2",[1],52%
same,"mortality at 10 µg/cm2, 10 µg/cm2",[1],91%
"N#Cc1[nH]c(Br)c(-c2ccc(Cl)cc2)c1Br [3,5-Dibromo-4-(p-chlorophenyl)pyrrole-2-carbonitrile]",Rating Against C. Elegans 150 ppm,[4],9
